# From patent US20260306453A1, “FORMULATIONS CONTAINING TRYPTAMINE DERIVATIVES AND USES THEREOF” (priority 2023, published 2026)
# Read-outs that look alike come from different tables or passages of the source.
# Key:
# [1] = type: in vivo; details: rat; oral or IV administration; within minutes
# Description: The rat PK (FIG. 6) was assessed with an oral dose of 10 mg/kg and intravenously at 1 mg/kg. […] The PK and brain concentrations were assessed in cohorts of 3 […] for each dosing group and between the plasma vs brain concentrations. For 10 mg/kg oral dosing, the PK parameters are outlined in Table 16 below.
# 1 mg/kg IV dosing, the PK parameters are outlined in Table 17.
# Sigma 1 = Sigma 1 (Homo sapiens, UniProt Q99720); assay: Radioligand binding in vitro assay, Sigma 1
# Chain of Sigma 1 (Q99720 whole entry): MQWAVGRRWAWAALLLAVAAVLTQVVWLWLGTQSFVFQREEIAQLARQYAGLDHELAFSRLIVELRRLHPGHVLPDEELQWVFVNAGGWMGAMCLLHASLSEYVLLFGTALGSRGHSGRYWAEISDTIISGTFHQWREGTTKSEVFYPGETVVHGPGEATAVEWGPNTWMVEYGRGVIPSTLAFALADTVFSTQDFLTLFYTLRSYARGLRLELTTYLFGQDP
# in vivo = details: rat, 3 mg/kg
# [2] = Rat pharmacodynamics (hypothermia) of intranasal DMT; details: in vivo
# Sigma 2 = Sigma 2 (Homo sapiens, UniProt Q5BJF2); assay: Radioligand binding in vitro assay, Sigma 2
# Chain of Sigma 2 (Q5BJF2 whole entry): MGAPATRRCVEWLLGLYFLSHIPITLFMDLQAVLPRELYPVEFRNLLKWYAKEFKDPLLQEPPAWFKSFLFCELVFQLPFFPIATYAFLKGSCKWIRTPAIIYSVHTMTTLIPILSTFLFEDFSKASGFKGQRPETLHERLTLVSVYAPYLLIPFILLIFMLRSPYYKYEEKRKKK
# 5-HT7A [3] = molecular target: T1, 5-HT7A (Homo sapiens, UniProt P34969); assay: Radioligand binding in vitro assay, 5-HT7A
# T1 sequence (P34969 other isoform, or with tags, fused parts or gaps): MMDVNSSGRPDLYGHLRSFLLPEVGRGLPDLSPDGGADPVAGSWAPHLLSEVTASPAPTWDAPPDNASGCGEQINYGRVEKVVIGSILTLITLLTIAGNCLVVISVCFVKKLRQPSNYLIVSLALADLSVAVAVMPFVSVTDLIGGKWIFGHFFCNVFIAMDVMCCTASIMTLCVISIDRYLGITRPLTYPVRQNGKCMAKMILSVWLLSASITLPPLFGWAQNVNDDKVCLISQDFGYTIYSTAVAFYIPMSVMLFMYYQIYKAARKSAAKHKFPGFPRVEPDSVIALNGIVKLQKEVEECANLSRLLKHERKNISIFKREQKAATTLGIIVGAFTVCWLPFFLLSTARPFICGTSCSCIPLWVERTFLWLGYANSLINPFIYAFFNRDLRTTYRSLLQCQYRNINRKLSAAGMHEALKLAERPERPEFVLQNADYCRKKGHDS
# 5-HT1E = 5-HT1E (Homo sapiens, UniProt P28566); assay: Radioligand binding in vitro assay, 5-HT1E
# Chain of 5-HT1E (P28566 whole entry): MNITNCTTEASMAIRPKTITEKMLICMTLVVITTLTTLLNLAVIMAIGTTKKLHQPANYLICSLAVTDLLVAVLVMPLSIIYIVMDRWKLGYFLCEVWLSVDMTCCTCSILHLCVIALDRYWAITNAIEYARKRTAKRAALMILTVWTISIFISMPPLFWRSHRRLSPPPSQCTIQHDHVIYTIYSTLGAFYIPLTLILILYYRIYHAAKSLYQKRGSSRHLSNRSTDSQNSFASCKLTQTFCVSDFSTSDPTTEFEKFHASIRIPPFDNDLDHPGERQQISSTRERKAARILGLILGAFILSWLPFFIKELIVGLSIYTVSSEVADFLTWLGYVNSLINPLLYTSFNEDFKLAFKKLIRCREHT
# 5-HT1D = 5-HT1D (Homo sapiens, UniProt P28221); assay: Radioligand binding in vitro assay, 5-HT1D
# Chain of 5-HT1D (P28221 whole entry): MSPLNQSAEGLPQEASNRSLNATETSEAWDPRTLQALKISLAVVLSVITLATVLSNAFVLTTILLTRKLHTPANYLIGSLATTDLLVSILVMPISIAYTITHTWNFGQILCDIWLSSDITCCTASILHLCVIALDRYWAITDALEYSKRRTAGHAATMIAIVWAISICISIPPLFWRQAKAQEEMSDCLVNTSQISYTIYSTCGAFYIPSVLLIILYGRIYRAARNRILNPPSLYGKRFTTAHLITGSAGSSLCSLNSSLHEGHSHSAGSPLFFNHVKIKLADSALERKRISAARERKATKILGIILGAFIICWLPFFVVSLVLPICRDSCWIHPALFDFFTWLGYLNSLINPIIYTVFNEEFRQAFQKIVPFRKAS
# 5-HT1B = 5-HT1B (Homo sapiens, UniProt P28222); assay: Radioligand binding in vitro assay, 5-HT1B
# Chain of 5-HT1B (P28222 whole entry): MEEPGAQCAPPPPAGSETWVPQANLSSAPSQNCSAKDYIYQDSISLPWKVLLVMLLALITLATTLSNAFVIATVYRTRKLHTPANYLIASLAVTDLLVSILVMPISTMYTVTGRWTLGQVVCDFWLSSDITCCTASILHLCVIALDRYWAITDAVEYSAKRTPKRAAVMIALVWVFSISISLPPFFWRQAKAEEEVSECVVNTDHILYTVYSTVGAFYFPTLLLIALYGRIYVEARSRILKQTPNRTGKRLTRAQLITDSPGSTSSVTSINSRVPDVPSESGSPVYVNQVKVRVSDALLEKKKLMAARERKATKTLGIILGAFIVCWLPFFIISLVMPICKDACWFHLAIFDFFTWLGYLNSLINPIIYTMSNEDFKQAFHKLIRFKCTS
# 5-HT6 [4] = molecular target: T2, 5-HT6 (Homo sapiens, UniProt P50406); assay: Radioligand binding in vitro assay, 5-HT6
# T2 sequence (P50406 whole entry): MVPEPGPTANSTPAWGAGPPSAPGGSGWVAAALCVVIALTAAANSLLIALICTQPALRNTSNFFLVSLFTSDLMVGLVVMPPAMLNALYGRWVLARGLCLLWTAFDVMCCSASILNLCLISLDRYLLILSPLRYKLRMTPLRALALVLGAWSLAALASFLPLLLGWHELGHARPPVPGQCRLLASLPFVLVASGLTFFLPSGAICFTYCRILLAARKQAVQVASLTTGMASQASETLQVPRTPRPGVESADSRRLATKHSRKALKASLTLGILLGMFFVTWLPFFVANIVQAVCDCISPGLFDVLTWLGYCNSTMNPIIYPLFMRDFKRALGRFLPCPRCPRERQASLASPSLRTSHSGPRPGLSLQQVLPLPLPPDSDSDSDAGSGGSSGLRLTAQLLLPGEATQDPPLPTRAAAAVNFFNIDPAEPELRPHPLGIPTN
# 5-HT5A = 5-HT5A (Homo sapiens, UniProt P47898); assay: Radioligand binding in vitro assay, 5-HT5A
# Chain of 5-HT5A (P47898 whole entry): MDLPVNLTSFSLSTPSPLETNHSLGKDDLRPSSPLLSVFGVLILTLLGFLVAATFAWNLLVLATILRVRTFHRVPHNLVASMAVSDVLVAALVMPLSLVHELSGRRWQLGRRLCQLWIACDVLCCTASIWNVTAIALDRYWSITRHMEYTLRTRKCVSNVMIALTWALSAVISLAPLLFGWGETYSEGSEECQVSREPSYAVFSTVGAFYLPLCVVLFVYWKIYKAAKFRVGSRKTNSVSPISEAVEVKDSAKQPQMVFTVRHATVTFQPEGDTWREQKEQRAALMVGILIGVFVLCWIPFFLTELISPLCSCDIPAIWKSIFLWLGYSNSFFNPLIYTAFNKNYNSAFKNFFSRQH
# [5] = rat, in vivo
# 5-HT2A [6] = molecular target: T3, 5-HT2A (Homo sapiens, UniProt P28223); assay: biochemical; details: radioligand binding
# T3 sequence (P28223 whole entry): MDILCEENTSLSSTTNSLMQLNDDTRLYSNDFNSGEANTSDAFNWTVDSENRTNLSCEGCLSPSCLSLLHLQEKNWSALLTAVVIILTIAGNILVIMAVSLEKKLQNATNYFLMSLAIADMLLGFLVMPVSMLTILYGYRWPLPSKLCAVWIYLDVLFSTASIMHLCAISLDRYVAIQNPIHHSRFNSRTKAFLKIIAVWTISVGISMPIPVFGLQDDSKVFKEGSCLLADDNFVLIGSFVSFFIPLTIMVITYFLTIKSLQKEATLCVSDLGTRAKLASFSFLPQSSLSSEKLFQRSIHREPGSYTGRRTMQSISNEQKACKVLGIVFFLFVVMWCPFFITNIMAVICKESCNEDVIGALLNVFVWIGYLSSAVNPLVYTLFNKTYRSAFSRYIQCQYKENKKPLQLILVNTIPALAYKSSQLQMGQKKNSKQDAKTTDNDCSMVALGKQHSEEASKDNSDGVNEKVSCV
# 5-HT1A = 5-HT1A (Homo sapiens, UniProt P08908); assay: Radioligand binding in vitro assay, 5-HT1A
# Chain of 5-HT1A (P08908 whole entry): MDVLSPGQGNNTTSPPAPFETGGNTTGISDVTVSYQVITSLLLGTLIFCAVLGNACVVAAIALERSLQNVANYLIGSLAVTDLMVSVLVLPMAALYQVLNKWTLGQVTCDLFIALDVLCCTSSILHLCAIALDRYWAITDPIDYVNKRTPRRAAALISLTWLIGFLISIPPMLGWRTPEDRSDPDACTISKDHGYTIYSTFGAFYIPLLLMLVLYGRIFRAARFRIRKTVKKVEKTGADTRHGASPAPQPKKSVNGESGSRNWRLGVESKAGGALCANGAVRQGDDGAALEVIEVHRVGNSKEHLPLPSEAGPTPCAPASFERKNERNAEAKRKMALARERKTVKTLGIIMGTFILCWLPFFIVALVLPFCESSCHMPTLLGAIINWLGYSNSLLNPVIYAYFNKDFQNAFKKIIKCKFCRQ
# 5-HT2B [7] = molecular target: T4, 5-HT2B (Homo sapiens, UniProt P41595); assay: Radioligand binding in vitro assay, 5-HT2B
# T4 sequence (P41595 whole entry): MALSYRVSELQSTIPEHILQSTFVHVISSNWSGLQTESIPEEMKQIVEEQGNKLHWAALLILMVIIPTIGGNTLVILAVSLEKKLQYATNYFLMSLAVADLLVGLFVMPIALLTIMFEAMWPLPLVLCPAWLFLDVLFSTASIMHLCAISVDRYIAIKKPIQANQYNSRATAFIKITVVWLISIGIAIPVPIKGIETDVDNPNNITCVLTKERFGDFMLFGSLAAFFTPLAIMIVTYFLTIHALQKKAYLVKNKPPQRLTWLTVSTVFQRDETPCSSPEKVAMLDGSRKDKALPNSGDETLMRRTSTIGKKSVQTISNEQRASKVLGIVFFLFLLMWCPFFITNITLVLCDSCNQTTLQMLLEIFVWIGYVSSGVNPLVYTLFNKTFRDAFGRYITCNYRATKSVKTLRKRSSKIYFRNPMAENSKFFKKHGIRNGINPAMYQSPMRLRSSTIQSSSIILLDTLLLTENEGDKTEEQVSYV
# 5-HT2C [8] = molecular target: T5, 5-HT2C (Homo sapiens, UniProt P28335); assay: biochemical; details: radioligand binding
# T5 sequence (P28335 33-458): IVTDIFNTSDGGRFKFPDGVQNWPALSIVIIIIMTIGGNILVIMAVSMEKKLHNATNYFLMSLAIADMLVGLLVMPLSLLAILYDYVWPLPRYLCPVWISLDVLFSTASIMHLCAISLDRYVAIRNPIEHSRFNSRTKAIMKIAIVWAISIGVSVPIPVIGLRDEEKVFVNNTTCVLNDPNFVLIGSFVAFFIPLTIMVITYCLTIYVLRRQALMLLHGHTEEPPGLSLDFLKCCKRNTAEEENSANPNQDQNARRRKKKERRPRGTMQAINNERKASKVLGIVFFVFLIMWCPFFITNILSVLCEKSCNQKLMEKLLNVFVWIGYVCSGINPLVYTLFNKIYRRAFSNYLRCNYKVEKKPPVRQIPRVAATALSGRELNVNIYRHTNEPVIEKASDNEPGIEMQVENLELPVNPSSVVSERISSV
# 5-HT2B [9] = molecular target: T4, 5-HT2B; assay: In vitro functional activity, 5-HT2B; type: biochemical; details: agonism
# Description: (§1) The functional activity considers agonism vs. antagonism. […] Each of these receptors affects mental health, learning, memory, and more specifically, 5-HT6 is responsible for precognitive effects and neuronal connections, growth, and migration.
# 5-HT6 [10] = molecular target: T2, 5-HT6; assay: In vitro functional activity, 5-HT6; type: biochemical; details: agonism
# Description: as §1
# 5-HT7A [11] = molecular target: T1, 5-HT7A; assay: In vitro functional activity, 5-HT7A; type: biochemical; details: agonism; inverse agonism at 5-HT7A
# Description: as §1
# 5-HT2A [12] = molecular target: T3, 5-HT2A; assay: In vitro functional activity, 5-HT2A; type: biochemical; details: agonism
# 5-HT2C [13] = molecular target: T5, 5-HT2C; assay: biochemical; details: agonism
# mice [14] = assay: In vivo mouse head-twitch response
# mice [15] = assay: 2-day Porsolt Forced-Swim Test; type: in vivo; details: Mus musculus, ip, both days, read-out: Porsolt Forced Swim (Both Days), minimum effective dose
# Description: The 2-day Porsolt Forced-Swim Test is a preclinical assay that tests for antidepressant effects in mice. […] Day 2 behavior is more likely to assess learning and memory with shorter swim times indicative of learning to be rescued.
# mice [16] = assay: Elevated plus maze
# mice [17] = assay: Fear extinction and conditioning; type: in vivo, mouse
# Description: The fear extinction and conditioning model is a preclinical assay that performs a stimulus and tests response time and recognition of the stimulus. This translational model can correlate to anxiety, PTSD, memory, and precognitive effects to the positive control (4-AcO-DMT).
# [18] = radioligand binding, read-out: Ki 5-HT1E
# [19] = radioligand binding, read-out: Ki 5-HT1D
# [20] = radioligand binding, read-out: Ki 5-HT1B
# [21] = radioligand binding, read-out: Ki Sigma 1
# [22] = radioligand binding, read-out: Ki Sigma 2
# [23] = radioligand binding, read-out: Ki 5-HT5A
smiles,measurement,setting,value
"Br.CN(C)CCc1c(Br)[nH]c2ccccc12 [2-Br-4-AcO-DMT*HBr, 2-(2-bromo-1H-indol-3-yl)-N,N-dimethylethan-1-amine hydrobromide salt]",metabolism via deacetylation into 2-Br-4-OH-DMT,[1],rapidly metabolized via deacetylation into an active metabolite
"CN(C)CCc1c[nH]c2ccccc12 [N,N-dimethyltryptamine, reference compound]",Ki,Sigma 1,230 nM
same,Cmax,in vivo,60 ng/mL
same,hypothermia,[2],dose-dependent hypothermia
same,Ki,Sigma 2,777 nM
same,Ki,5-HT7A [3],15.2 nM
same,Ki,5-HT1E,104 nM
same,Ki,5-HT1D,42.2 nM
same,Ki,5-HT1B,557 nM
same,Ki,5-HT6 [4],134 nM
same,Ki,5-HT5A,155 nM
same,tmax (maximal effects),[5],10 min
CN(C)CCc1c(Br)[nH]c2ccccc12 [drawing 2],Ki,5-HT2A [6],417 nM
same,Ki,5-HT1E; [18],> 10000 nM
same,Ki,5-HT1D; [19],> 10000 nM
same,Ki,5-HT1B; [20],> 10000 nM
same,Ki,5-HT1A,> 10000 nM
same,Ki,5-HT2B [7],222 nM
CN(C)CCc1c(Cl)[nH]c2ccccc12 [drawing 3],Ki,5-HT1E; [18],3910 nM
same,Ki,5-HT1D; [19],> 10000 nM
same,Ki,5-HT1B; [20],> 10000 nM
same,Ki,5-HT2B [7],191 nM
CC(=O)Oc1cccc2[nH]cc(CCN(C)C)c12 [drawing 4],Ki,5-HT2B [7],11.6 nM
CC(=O)Oc1cccc2[nH]c(Br)c(CCN(C)C)c12 [drawing 5],Ki,5-HT1E; [18],> 10000 nM
same,Ki,5-HT1D; [19],> 10000 nM
same,Ki,5-HT1B; [20],> 10000 nM
same,Ki,5-HT2B [7],67.7 nM
CC(C)N(CCc1c(Br)[nH]c2ccccc12)C(C)C [drawing 6],Ki,5-HT1E; [18],> 10000 nM
same,Ki,5-HT1D; [19],1070 nM
same,Ki,5-HT1B; [20],> 10000 nM
same,Ki,5-HT2B [7],45.2 nM
CN(C)CCc1c[nH]c2cccc(NS(C)(=O)=O)c12 [drawing 7],Ki,5-HT2A [6],> 10000 nM
same,Ki,5-HT1A,2900 nM
same,Ki,5-HT2B [7],1900 nM
CC(=O)Nc1cccc2[nH]cc(CCN(C)C)c12 [drawing 8],Ki,5-HT2A [6],3400 nM
same,Ki,5-HT1A,570 nM
same,Ki,5-HT2B [7],700 nM
CN(C)CCc1c(Br)[nH]c2ccccc12 [drawing 9],Ki,Sigma 1; [21],239 nM
same,Ki,Sigma 2; [22],2460 nM
same,Ki,5-HT7A [3]; radioligand binding,137 nM
same,Ki,5-HT5A; [23],1520 nM
CN(C)CCc1c(Cl)[nH]c2ccccc12 [drawing 10],Ki,Sigma 1; [21],638 nM
same,Ki,5-HT2C [8],120 nM
same,Ki,Sigma 2; [22],> 10000 nM
same,Ki,5-HT7A [3]; radioligand binding,178 nM
same,Ki,5-HT6 [4]; radioligand binding,62 nM
same,Ki,5-HT5A; [23],3000 nM
CC(=O)Oc1cccc2[nH]cc(CCN(C)C)c12 [drawing 11],Ki,Sigma 1; [21],> 10000 nM
same,Ki,Sigma 2; [22],> 10000 nM
same,Ki,5-HT7A [3]; radioligand binding,59.6 nM
CC(=O)Oc1cccc2[nH]c(Br)c(CCN(C)C)c12 [drawing 12],Ki,Sigma 1; [21],> 10000 nM
same,Ki,5-HT2C [8],1220 nM
same,Ki,Sigma 2; [22],> 10000 nM
same,Ki,5-HT7A [3]; radioligand binding,396 nM
same,Ki,5-HT6 [4]; radioligand binding,70.7 nM
same,Ki,5-HT5A; [23],894 nM
CC(C)N(CCc1c(Br)[nH]c2ccccc12)C(C)C [drawing 13],Ki,Sigma 1; [21],257 nM
same,Ki,5-HT2C [8],> 10000 nM
same,Ki,Sigma 2; [22],483 nM
same,Ki,5-HT7A [3]; radioligand binding,4930 nM
same,Ki,5-HT6 [4]; radioligand binding,407 nM
same,Ki,5-HT5A; [23],> 10000 nM
CN(C)CCc1c[nH]c2cccc(NS(C)(=O)=O)c12 [drawing 14],Ki,Sigma 1; [21],> 10000 nM
same,Ki,5-HT2C [8],> 10000 nM
same,Ki,Sigma 2; [22],> 10000 nM
same,Ki,5-HT7A [3]; radioligand binding,930 nM
same,Ki,5-HT6 [4]; radioligand binding,> 10000 nM
CC(=O)Nc1cccc2[nH]cc(CCN(C)C)c12 [drawing 15],Ki,Sigma 1; [21],> 10000 nM
same,Ki,5-HT2C [8],1000 nM
same,Ki,Sigma 2; [22],> 10000 nM
same,Ki,5-HT7A [3]; radioligand binding,290 nM
same,Ki,5-HT6 [4]; radioligand binding,> 10000 nM
CN(C)CCc1c(Br)[nH]c2ccccc12 [drawing 16],EC50,5-HT2B [9],799 nM
same,EC50,5-HT6 [10],7 nM
same,EC50,5-HT7A [11],225 nM
same,EC50,5-HT2A [12],> 10000 nM
CN(C)CCc1c(Cl)[nH]c2ccccc12 [drawing 17],EC50,5-HT2C [13],4480 nM
same,EC50,5-HT6 [10],9 nM
same,EC50,5-HT7A [11],630 nM
same,EC50,5-HT2A [12],202 nM
CC(=O)Oc1cccc2[nH]c(Br)c(CCN(C)C)c12 [drawing 18],EC50,5-HT2C [13],864 nM
same,EC50,5-HT6 [10],8 nM
same,EC50,5-HT7A [11],917 nM
CC(C)N(CCc1c(Br)[nH]c2ccccc12)C(C)C [drawing 19],EC50,5-HT2C [13],> 10000 nM
same,EC50,5-HT2B [9],18 nM
same,EC50,5-HT6 [10],186 nM
same,EC50,5-HT7A [11],5870 nM
same,EC50,5-HT2A [12],2130 nM
CN(C)CCc1c(Br)[nH]c2ccccc12 [drawing 20],Head Twitch Response Results,mice [14],No Head Twitch up to 50 mg/kg
CN(C)CCc1c(Cl)[nH]c2ccccc12 [drawing 21],Head Twitch Response Results,mice [14],No Head Twitch up to 100 mg/kg
"CC(=O)Oc1cccc2[nH]cc(CCN(C)C)c12 [drawing 22, reference compound]",Head Twitch Response Results,mice [14],Positive Control causes head twitch at 20 mg/kg
CC(=O)Oc1cccc2[nH]c(Br)c(CCN(C)C)c12 [drawing 23],Head Twitch Response Results,mice [14],No Head Twitch up to 50 mg/kg
CC(C)N(CCc1c(Br)[nH]c2ccccc12)C(C)C [drawing 24],Head Twitch Response Results,mice [14],No Head Twitch up to 25 mg/kg
CN(C)CCc1c[nH]c2cccc(NS(C)(=O)=O)c12 [drawing 25],Head Twitch Response Results,mice [14],No Head Twitch up to 25 mg/kg
CC(=O)Nc1cccc2[nH]cc(CCN(C)C)c12 [drawing 26],Head Twitch Response Results,mice [14],No Head Twitch up to 50 mg/kg
CN(C)CCc1c(Br)[nH]c2ccccc12 [drawing 27],minimal effective dose,mice [15],1 to 10 mg/kg
CN(C)CCc1c(Cl)[nH]c2ccccc12 [drawing 28],minimal effective dose,mice [15],25 mg/kg
CC(=O)Oc1cccc2[nH]c(Br)c(CCN(C)C)c12 [drawing 29],minimal effective dose,mice [15],5 mg/kg
CC(C)N(CCc1c(Br)[nH]c2ccccc12)C(C)C [drawing 30],minimal effective dose,mice [15],10 mg/kg
CC(=O)Oc1cccc2[nH]c(Br)c(CCN(C)C)c12 [drawing 31],"Elevated Plus Maze, effective dose range",mice [16],5 to 10 mg/kg
CC(C)N(CCc1c(Br)[nH]c2ccccc12)C(C)C [drawing 32],"Elevated Plus Maze, effective dose range",mice [16],25 mg/kg
CN(C)CCc1c[nH]c2cccc(NS(C)(=O)=O)c12 [drawing 33],"Elevated Plus Maze, effective dose range",mice [16],25 mg/kg
CN(C)CCc1c(Br)[nH]c2ccccc12 [drawing 34],"Fear Extinction and Conditioning, effective dose range",mice [17],1 to 10 mg/kg
CC(=O)Oc1cccc2[nH]c(Br)c(CCN(C)C)c12 [drawing 35],"Fear Extinction and Conditioning, effective dose range",mice [17],5 to 25 mg/kg
CC(C)N(CCc1c(Br)[nH]c2ccccc12)C(C)C [drawing 36],"Fear Extinction and Conditioning, effective dose range",mice [17],1 to 10 mg/kg
